The source of these data is ChEMBL document CHEMBL3297656, “New coumarin derivatives: design, synthesis and use as inhibitors of hMAO” (Bioorg Med Chem, 2014).

The term IC50 denotes the concentration at which inhibition is half-maximal.

The species entered for data set [1] is Homo sapiens. Kind of data set: Selectivity index, ratio of IC50 for human recombinant MAO-A to IC50 for human recombinant MAO-B.
For data set [2], the target named is T1, Amine oxidase [flavin-containing] B (Homo sapiens, UniProt P27338).
T1 sequence (P27338 whole entry): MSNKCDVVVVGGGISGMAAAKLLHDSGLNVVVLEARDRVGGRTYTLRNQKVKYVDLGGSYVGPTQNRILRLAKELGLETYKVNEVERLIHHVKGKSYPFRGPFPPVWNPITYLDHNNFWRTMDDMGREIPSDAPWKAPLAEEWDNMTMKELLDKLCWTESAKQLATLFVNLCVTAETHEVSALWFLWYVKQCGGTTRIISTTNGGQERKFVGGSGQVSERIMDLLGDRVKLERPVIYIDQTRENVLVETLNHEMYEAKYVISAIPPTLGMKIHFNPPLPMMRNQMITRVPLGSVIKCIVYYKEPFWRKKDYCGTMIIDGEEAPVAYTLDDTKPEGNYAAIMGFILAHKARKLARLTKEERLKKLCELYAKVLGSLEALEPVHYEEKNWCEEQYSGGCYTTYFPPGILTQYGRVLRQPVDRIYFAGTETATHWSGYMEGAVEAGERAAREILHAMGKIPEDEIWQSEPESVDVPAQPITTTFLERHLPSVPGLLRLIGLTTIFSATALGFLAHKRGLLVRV
Kind of data set: Inhibition of human recombinant MAO-B assessed as H2O2 production using p-tyramine substrate by fluorimetric method.

In data set [3] the target is T2, Amine oxidase [flavin-containing] A (Homo sapiens, UniProt P21397).
T2 sequence (P21397 whole entry): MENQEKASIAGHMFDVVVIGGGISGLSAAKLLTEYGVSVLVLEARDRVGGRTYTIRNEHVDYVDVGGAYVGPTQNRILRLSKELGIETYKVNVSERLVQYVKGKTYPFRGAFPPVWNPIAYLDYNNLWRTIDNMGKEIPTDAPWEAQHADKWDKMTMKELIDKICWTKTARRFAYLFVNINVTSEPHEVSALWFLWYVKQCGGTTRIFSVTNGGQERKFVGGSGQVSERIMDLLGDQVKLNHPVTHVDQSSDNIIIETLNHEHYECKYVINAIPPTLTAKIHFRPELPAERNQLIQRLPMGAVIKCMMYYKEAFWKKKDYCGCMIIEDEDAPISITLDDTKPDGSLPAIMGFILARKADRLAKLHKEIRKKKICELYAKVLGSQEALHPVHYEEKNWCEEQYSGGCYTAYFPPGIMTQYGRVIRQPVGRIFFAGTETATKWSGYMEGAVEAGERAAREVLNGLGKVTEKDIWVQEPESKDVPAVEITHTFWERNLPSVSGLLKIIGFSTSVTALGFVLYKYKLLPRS
Kind of data set: Inhibition of human recombinant MAO-A assessed as H2O2 production using p-tyramine substrate at 60 uM by fluorimetric method.

The target of data set [4] is T1, Amine oxidase [flavin-containing] B. Kind of data set: Inhibition of human recombinant MAO-B assessed as H2O2 production using p-tyramine substrate at 60 uM by fluorimetric method.
Data set [5] concerns the target T2, Amine oxidase [flavin-containing] A. Kind of data set: Inhibition of human recombinant MAO-A assessed as H2O2 production using p-tyramine substrate by fluorimetric method.

For `CCCCSC(=O)c1cc2ccccc2oc1=O`, in data set [1], the Ratio IC50 came to 3.8. In data set [2], the IC50 stood at 16 µM. Also, in data set [3], the “inhibition (INH)” value is “Not Active”.

Take `O=C(Sc1ccc(Br)cc1)c1cc2cc([N+](=O)[O-])ccc2oc1=O`: the Ratio IC50 in data set [1] worked out at 2.6. Also, the IC50 in data set [2] was found to be 20.7 µM. Moreover, in data set [3], the “inhibition (INH)” value is “Not Active”.

Turning to `CC(C)NC(=O)c1cc2cc([N+](=O)[O-])ccc2oc1=O`, the “inhibition (INH)” value in data set [4] and in data set [3] was “Not Active” in each case.

As to `O=C(SCc1ccco1)c1cc2ccccc2oc1=O`, the Ratio IC50 in data set [1] was 189. In addition, the values for the IC50 in data set [2] and in data set [5] were 0.21 µM and 39.7 µM, respectively.

For `CC(C)NC(=O)c1cc2cc(Br)cc(Br)c2oc1=O`, the Ratio IC50 in data set [1] was found to be 2.2. Besides, the IC50 in data set [2] worked out at 10.3 µM; in data set [5] it was 22.7 µM.

As to `O=C(Sc1ccc(Br)cc1)c1cc2ccccc2oc1=O`, the Ratio IC50 in data set [1] was found to be 3.5. The IC50 in data set [2] was 6.5 µM; in data set [5] it was 22.7 µM.

As for `CCC(C)NC(=O)c1cc2cc([N+](=O)[O-])ccc2oc1=O` (stereo not drawn), in data set [1], the Ratio IC50 was found to be 3.4. Besides, the IC50 in data set [2] turned out to be 17.4 µM. Further, the “inhibition (INH)” value in data set [3] was “Not Active”.

Take `CCCCCCN(CCCCCC)C(=O)c1cc2cc([N+](=O)[O-])ccc2oc1=O`: the “inhibition (INH)” value in data set [4] and in data set [3] was “Not Active” in each case.

Consider `CCCCSC(=O)c1cc2cc([N+](=O)[O-])ccc2oc1=O`, for which the “inhibition (INH)” value in data set [4] and in data set [3] was “Not Active” in each case.

On to `CC(C)(C)NC(=O)c1cc2cc([N+](=O)[O-])ccc2oc1=O`, for which the “inhibition (INH)” value in data set [4] and in data set [3] was “Not Active” in each case.

Take `CC(C)(C)NC(=O)c1cc2ccccc2oc1=O`: the Ratio IC50 in data set [1] turned out to be 5.1. For the same compound, the IC50 in data set [2] came to 7.9 µM; in data set [5] it was 40.4 µM.

In the case of `O=C(Sc1ccc(Br)cc1)c1cc2cc(C(F)(F)F)ccc2oc1=O`, the Ratio IC50 in data set [1] is 3.9. In addition, in data set [2], the IC50 was found to be 15.2 µM. Moreover, the “inhibition (INH)” value in data set [3] was “Not Active”.

In the case of `CC(C)NC(=O)c1cc2ccccc2oc1=O`, the IC50 in data set [5] turned out to be 35.5 µM.

For `O=C(Sc1ncccn1)c1cc2ccccc2oc1=O`, the Ratio IC50 in data set [1] turned out to be 7.8. Besides, the IC50 in data set [2] came to 7.68 µM. For the same compound, the “inhibition (INH)” value in data set [3] is “Not Active”.

In the case of `O=C(SCc1ccco1)c1cc2cc([N+](=O)[O-])ccc2oc1=O`, the Ratio IC50 in data set [1] is 2.9. The IC50 in data set [2] was determined as 13.1 µM; in data set [5], 48.3 µM.

For the compound `CCCCCCN(CCCCCC)C(=O)c1cc2cc(Br)cc(Br)c2oc1=O`, the Ratio IC50 in data set [1] was 1.4. Also, the figures for the IC50 in data set [2] and in data set [5] were 7.41 µM and 10.1 µM, respectively.

In the case of `CCC(C)NC(=O)c1cc2cc(Br)cc(Br)c2oc1=O` (stereo not drawn), the Ratio IC50 in data set [1] came out at 0.9. Moreover, the IC50 stood at 45.4 µM in data set [2] and 42.3 µM in data set [5].

With `O=C(Sc1ccc(Br)cc1)c1cc2cc(Br)c(Br)cc2oc1=O`, in data set [1], the Ratio IC50 amounted to 2.4. Besides, in data set [2], the IC50 worked out at 25.2 µM. In data set [3], the “inhibition (INH)” value is reported as “Not Active”.

For `O=C(SCc1ccco1)c1cc2cc(Br)c(Br)cc2oc1=O`, in data set [1], the Ratio IC50 came out at 10.6. Further, in data set [2], the IC50 is 5.68 µM. For the same compound, the “inhibition (INH)” value in data set [3] is reported as “Not Active”.

With `CCCCSC(=O)c1cc2cc(Br)c(Br)cc2oc1=O`, the “inhibition (INH)” value in data set [4] and in data set [3] was “Not Active” in each case.
